Experimental data as given in patent publication US7569578B2, “Heterocyclic anti-migraine agents” (Bristol-Meyers Squibb Company, priority 2003, dated 2009).

Target: T1, Human CGRP1 Receptor (Homo sapiens, UniProt O60894+Q16602)
T1 construct: endogenous in cells; host or cells: SK-N-MC cells (membrane homogenate)
Assay: CGRP Binding Assay ([125I]-CGRP radioligand displacement, SK-N-MC membrane homogenate)
Settings: [125I]-CGRP displacement, SK-N-MC homogenate, room temperature 2 h; read-out: Human CGRP1 Receptor IC50
Procedure: Tissue Culture. SK-N-MC cells were grown at 37° C. in 5% CO2 as a monolayer in medium consisting of MEM with Earle's salts and L-glutamine (Gibco) supplemented with 10% fetal bovine serum (Gibco).
Cell Pellets. […] The cells were transferred from plates to polypropylene tubes (16×100 mm) and homogenized using a polytron. Homogenates were centrifuged at 32,000×g for 30 min. The pellets were resuspended in cold hypotonic lysis buffer with 0.1% mammalian protease inhibitor cocktail (Sigma) and assayed for protein concentration. The SK-N-MC homogenate was then aliquoted and stored at −80° C. until needed.
Radioligand Binding Assay. The compounds of invention were solubilized and carried through serial dilutions using 100% DMSO. Aliquots from the compound serial dilutions were further diluted 25 fold into assay buffer (50 mM Tris-Cl pH 7.5, 5 mM MgCl2, 0.005% Triton X-100) and transferred (volume 50 μl) into 96 well assay plates. […] SK-N-MC pellets were thawed, diluted in assay buffer with fresh 0.1% mammalian protease inhibitor cocktail (Sigma), and homogenized again. SK-N-MC homogenate (5 μg/well) was added in a volume of 100 μl. The assay plates were then incubated at room temperature for 2 h. Assays were stopped by addition of excess cold wash buffer (20 mM Tris-Cl pH 7.5, 0.1% BSA) immediately followed by filtration over glass fiber filters (Whatman GF/B) previously soaked in 0.5% PEI. Non-specific binding was defined with 1 μM beta-CGRP. Protein bound radioactivity was determined using a gamma or scintillation counter.

T1 sequence (Q16602 23-461): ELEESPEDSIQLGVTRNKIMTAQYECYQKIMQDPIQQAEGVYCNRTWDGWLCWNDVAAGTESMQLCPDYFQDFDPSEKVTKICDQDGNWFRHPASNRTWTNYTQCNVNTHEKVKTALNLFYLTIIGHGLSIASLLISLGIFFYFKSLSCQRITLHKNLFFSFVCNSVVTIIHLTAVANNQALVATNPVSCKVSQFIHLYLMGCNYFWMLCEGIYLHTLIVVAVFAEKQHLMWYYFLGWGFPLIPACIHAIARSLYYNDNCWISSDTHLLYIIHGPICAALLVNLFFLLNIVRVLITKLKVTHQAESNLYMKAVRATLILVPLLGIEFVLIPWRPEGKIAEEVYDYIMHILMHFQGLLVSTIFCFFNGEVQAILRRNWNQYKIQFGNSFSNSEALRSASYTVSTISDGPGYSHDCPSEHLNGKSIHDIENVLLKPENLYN
T1 sequence (O60894 27-148): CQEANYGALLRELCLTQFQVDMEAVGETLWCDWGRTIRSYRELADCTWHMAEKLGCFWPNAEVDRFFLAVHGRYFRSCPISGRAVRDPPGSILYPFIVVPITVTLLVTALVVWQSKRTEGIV

Row | Structure (SMILES) | IC50
1 | Cc1cc(C[C@@H](OC(=O)N2CCC(c3cc4ccccc4[nH]c3=O)CC2)c2nc(-c3ccc(F)cc3)no2)cc2cn[nH]c12 [Example 100, (R)-1-(3-(4-Fluorophenyl)-1,2,4-oxadiazol-5-yl)-2-(7-methyl-1H-indazol-5-yl)ethyl 4-(2-oxo-1,2-dihydroquinolin-3-yl)piperidine-1-carboxylate] | 100 to 1000 nM
2 | Cc1ccc(C(CC(=O)N2CCC(N3Cc4ccccc4NC3=O)CC2)Cc2cc(C)c3[nH]ncc3c2)nc1 (racemic) [Example 26, (±)-3-(1-(4-(7-Methyl-1H-indazol-5-yl)-3-(5-methylpyridin-2-yl)butanoyl)piperidin-4-yl)-3,4-dihydroquinazolin-2(1H)-one] | 10 to 100 nM
3 | CCc1cc(CC(NC(=O)N2CCC(N3Cc4ccccc4NC3=O)CC2)c2nnnn2C)cc2c(C)n[nH]c12 (racemic) [Example 17, (±)-4-(2-Oxo-1,4-dihydro-2H-quinazolin-3-yl)-piperidine-1-carboxylic acid [2-(7-ethyl-3-methyl-1H-indazol-5-yl)-1-(1-methyl-1H-tetrazol-5-yl)-ethyl]-amide] | 10 to 100 nM
4 | Cc1c[nH]c(C(Cc2cc(C)c3[nH]ncc3c2)NC(=O)N2CCC(N3Cc4ccccc4NC3=O)CC2)n1 (racemic) [Example 90, (±)-N-(1-(4-Methyl-1H-imidazol-2-yl)-2-(7-methyl-1H-indazol-5-yl)ethyl)-4-(2-oxo-1,2-dihydroquinazolin-3(4H)-yl)piperidine-1-carboxamide] | 100 to 1000 nM
5 | Cc1cc(CC(NC(=O)N2CCC(N3Cc4ccccc4NC3=O)CC2)c2nccn2C)cc2cn[nH]c12 (racemic) [Example 66, (±)-N-(1-(1-Methyl-1H-imidazol-2-yl)-2-(7-methyl-1H-indazol-5-yl)ethyl)-4-(2-oxo-1,2-dihydroquinazolin-3(4H)-yl)piperidine-1-carboxamide] | < 10 nM
6 | Cc1cc(CC(NC(=O)N2CCC(N3Cc4ccccc4NC3=O)CC2)c2nccn2Cc2cc(F)cc(F)c2)cc2cn[nH]c12 (racemic) [Example 69, (±)-N-(1-(1-(3,5-Difluorobenzyl)-1H-imidazol-2-yl)-2-(7-methyl-1H-indazol-5-yl)ethyl)-4-(2-oxo-1,2-dihydroquinazolin-3(4H)-yl)piperidine-1-carboxamide] | < 10 nM
7 | Cc1cc(C[C@@H](OC(=O)N2CCC(c3cc4ccccc4[nH]c3=O)CC2)c2nc(-c3cccnc3)no2)cc2cn[nH]c12 [Example 102, (R)-2-(7-Methyl-1H-indazol-5-yl)-1-(3-(pyridin-3-yl)-1,2,4-oxadiazol-5-yl)ethyl 4-(2-oxo-1,2-dihydroquinolin-3-yl)piperidine-1-carboxylate] | 10 to 100 nM
8 | Cc1cc(CC(NC(=O)N2CCC(N3Cc4cccc(F)c4NC3=O)CC2)c2nnc3ccccn23)cc2cn[nH]c12 (racemic) [Example 83, (±)-N-(1-([1,2,4]Triazolo [4,3-a]pyridin-3-yl)-2-(7-methyl-1H-indazol-5-yl)ethyl)-4-(8-fluoro-2-oxo-1,2-dihydroquinazolin-3(4H)-yl)piperidine-1-carboxamide] | < 10 nM
9 | Cc1cc(CC(CC(=O)N2CCC(c3cc4ccccc4[nH]c3=O)CC2)c2ccccn2)cc2cn[nH]c12 (racemic) [Example 24, (±)-3-(1-(4-(7-Methyl-1H-indazol-5-yl)-3-(pyridin-2-yl)butanoyl)piperidin-4-yl)quinolin-2(1H)-one] | 10 to 100 nM
10 | Cc1cc(CC(CC(=O)N2CCC(N3Cc4ccccc4NC3=O)CC2)c2ccc(C=O)cn2)cc2cn[nH]c12 (racemic) [Example 28, (±)-6-(1-(7-Methyl-1H-indazol-5-yl)-4-oxo-4-(4-(2-oxo-1,2-dihydroquinazolin-3(4H)-yl)piperidin-1-yl)butan-2-yl)nicotinaldehyde] | < 10 nM
11 | Cc1cc(CC(CC(=O)N2CCC(N3Cc4ccccc4NC3=O)CC2)c2ccccn2)cc2cn[nH]c12 (racemic) [Example 1, (±)-3-{1-[4-(7-Methyl-1H-indazol-5-yl)-3-pyridin-2-yl-butyryl]-piperidin-4-yl}-3,4-dihydro-1H-quinazolin-2-one] | < 10 nM
12 | Cc1cc(CC(NC(=O)N2CCC(N3Cc4ccccc4NC3=O)CC2)c2nnnn2CC(C)(C)C)cc2cn[nH]c12 (racemic) [Example 84, (±)-N-(2-(7-Methyl-1H-indazol-5-yl)-1-(1-neopentyl-1H-tetrazol-5-yl)ethyl)-4-(2-oxo-1,2-dihydroquinazolin-3(4H)-yl)piperidine-1-carboxamide] | < 10 nM
13 | Cc1cc(CC(NC(=O)N2CCC(N3Cc4ccccc4NC3=O)CC2)c2ncc(Br)[nH]2)cc2cn[nH]c12 (racemic) [Example 86, (±)-N-(1-(4-Bromo-1H-imidazol-2-yl)-2-(7-methyl-1H-indazol-5-yl)ethyl)-4-(2-oxo-1,2-dihydroquinazolin-3(4H)-yl)piperidine-1-carboxamide] | < 10 nM
14 | Cc1cc(CC(CC(=O)N2CCC(N3Cc4cccc(F)c4NC3=O)CC2)c2ccccn2)cc2cn[nH]c12 (racemic) [Example 23, (±)-8-Fluoro-3-(1-(4-(7-methyl-1H-indazol-5-yl)-3-(pyridin-2-yl)butanoyl)piperidin-4-yl)-3,4-dihydroquinazolin-2(1H)-one] | 10 to 100 nM
15 | CCc1cc(CC(NC(=O)N2CCC(N3Cc4ccccc4NC3=O)CC2)c2nnn(CCc3ccccc3)n2)cc2c(C)n[nH]c12 (racemic) [Example 16, (±)-4-(2-Oxo-1,4-dihydro-2H-quinazolin-3-yl)-piperidine-1-carboxylic acid [2-(7-ethyl-3-methyl-1H-indazol-5-yl)-1-(2-phenethyl-2H-tetrazol-5-yl)-ethyl]-amide] | 10 to 100 nM
16 | Cc1cc(CC(NC(=O)N2CCC(N3Cc4ccccc4NC3=O)CC2)c2nccn2Cc2cccc(C(N)=O)c2)cc2cn[nH]c12 (racemic) [Example 77, (±)-N-(1-(1-(3-Carbamoylbenzyl)-1H-imidazol-2-yl)-2-(7-methyl-1H-indazol-5-yl)ethyl)-(2-oxo-1,2-dihydroquinazolin-3(4H)-yl)piperidine-1-carboxamide] | < 10 nM
17 | Cc1cc(CC(NC(=O)N2CCC(N3Cc4ccccc4NC3=O)CC2)c2cc([N+](=O)[O-])ccn2)cc2cn[nH]c12 (racemic) [Example 32, (±)-N-(2-(7-Methyl-1H-indazol-5-yl)-1-(4-nitropyridin-2-yl)ethyl)-4-(2-oxo-1,2-dihydroquinazolin-3(4H)-yl)piperidine-1-carboxamide] | < 10 nM
18 | Cc1cc(CC(NC(=O)N2CCC(N3Cc4ccccc4NC3=O)CC2)c2ncc[nH]2)cc2cn[nH]c12 (racemic) [Example 65, (±)-N-(1-(1H-Imidazol-2-yl)-2-(7-methyl-1H-indazol-5-yl)ethyl)-4-(2-oxo-1,2-dihydroquinazolin-3(4H)-yl)piperidine-1-carboxamide] | 10 to 100 nM
19 | Cc1cc(CC(NC(=O)N2CCC(N3Cc4cccc(F)c4NC3=O)CC2)c2cc3ccccc3cn2)cc2cn[nH]c12 (centres unmarked) [Example 51, 4-(8-fluoro-2-oxo-1,2-dihydroquinazolin-3(4H)-yl)-N-(1-(isoquinolin-3-yl)-2-(7-methyl-1H-indazol-5-yl)ethyl)piperidine-1-carboxamide] | < 10 nM
20 | Cc1cc(CC(OC(=O)N2CCC(N3Cc4ccccc4NC3=O)CC2)c2ccco2)cc2cn[nH]c12 (centres unmarked) [Example 56, 1-(Furan-2-yl)-2-(7-methyl-1H-indazol-5-yl)ethyl 4-(2-oxo-1,2-dihydroquinazolin-3(4H)-yl)piperidine-1-carboxylate] | 10 to 100 nM
